Data reported in ChEMBL document CHEMBL1201862, “PubChem BioAssay data set” (2004).
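Method: 48-hour compound exposure of cells in 96-well plates, five concentrations, linear interpolation of endpoints. GI50 is the concentration that inhibits growth by half.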 Active and inactive are the calls of the source. Rule as the data show it: active = GI50 up to about 1.1 µM and inactive = higher.

Columns and labels:
Test in all cases: inhibition of tumour cell growth, NCI panel, 48 h
A498 = tested on: A498
ACHN = tested on: ACHN
CCRF-CEM = tested on: CCRF-CEM
HCT-15 = tested on: HCT-15
Malme-3M = tested on: Malme-3M
SF-539 = tested on: SF-539
SK-MEL-28 = tested on: SK-MEL-28
SK-OV-3 = tested on: SK-OV-3
SN12C = tested on: SN12C
TK-10 = tested on: TK-10
UACC-62 = tested on: UACC-62
A549 = tested on: A549
KM12 = tested on: KM12
MDA-MB-231 = tested on: MDA-MB-231
SNB-75 = tested on: SNB-75
T47D = tested on: T47D
UACC-257 = tested on: UACC-257
Hs-578T = tested on: Hs-578T
NCI/ADR-RES = tested on: NCI/ADR-RES

| SMILES | GI50 (A498) | GI50 (ACHN) | GI50 (CCRF-CEM) | GI50 (HCT-15) | GI50 (Malme-3M) | GI50 (SF-539) | GI50 (SK-MEL-28) | GI50 (SK-OV-3) | GI50 (SN12C) | GI50 (TK-10) | GI50 (UACC-62) | GI50 (A549) | GI50 (KM12) | GI50 (MDA-MB-231) | GI50 (SNB-75) | GI50 (T47D) | GI50 (UACC-257) | GI50 (Hs-578T) | GI50 (NCI/ADR-RES) |
| --- | --- | --- | --- | --- | --- | --- | --- | --- | --- | --- | --- | --- | --- | --- | --- | --- | --- | --- | --- |
| COc1ccc(/C(Cl)=C(\CN(C)C)c2ccc(OC)c(OC)c2)cc1OC | > 100 µM (inactive) | > 100 µM (inactive) | > 100 µM (inactive) | > 100 µM | > 100 µM (inactive) | > 100 µM (inactive) | > 100 µM (inactive) | > 100 µM (inactive) | > 100 µM (inactive) | > 100 µM (inactive) | > 100 µM (inactive) | – | – | – | – | – | – | – | – |
| COc1ccccc1Nc1nc2c([nH]1)c(=O)n(C)c(=O)n2C | – | – | > 10 µM (inactive) | > 10 µM | > 10 µM (inactive) | – | > 10 µM (inactive) | > 10 µM (inactive) | > 10 µM (inactive) | > 10 µM (inactive) | > 10 µM (inactive) | > 10 µM (inactive) | > 10 µM (inactive) | > 10 µM (inactive) | > 10 µM (inactive) | > 10 µM (inactive) | > 10 µM (inactive) | – | – |
| CC12CCCC3(CC(=O)C(C)(C)C3C(=O)C1)C2 (centres undefined) | – | > 100 µM (inactive) | > 100 µM (inactive) | > 100 µM | > 100 µM (inactive) | – | > 100 µM (inactive) | > 100 µM (inactive) | > 100 µM (inactive) | > 100 µM (inactive) | > 100 µM (inactive) | > 100 µM (inactive) | > 100 µM (inactive) | – | > 100 µM (inactive) | > 100 µM (inactive) | > 100 µM (inactive) | > 100 µM (inactive) | > 100 µM (inactive) |
| Cc1ccc(C(=O)C#Cc2cn(C3CC(O)C(CO)O3)c(=O)[nH]c2=O)cc1 (centres undefined) | – | > 100 µM (inactive) | – | > 100 µM | 15.4 µM (inactive) | > 100 µM (inactive) | > 100 µM (inactive) | > 100 µM (inactive) | > 100 µM (inactive) | > 100 µM (inactive) | > 100 µM (inactive) | > 100 µM (inactive) | > 100 µM (inactive) | > 100 µM (inactive) | > 100 µM (inactive) | 23.6 µM (inactive) | > 100 µM (inactive) | 95.1 µM (inactive) | > 100 µM (inactive) |
| CCOC(=O)C=C1CCN(C(=O)c2ccccc2)CC1 | > 100 µM (inactive) | > 100 µM (inactive) | > 100 µM (inactive) | > 100 µM | > 100 µM (inactive) | > 100 µM (inactive) | > 100 µM (inactive) | > 100 µM (inactive) | > 100 µM (inactive) | > 100 µM (inactive) | > 100 µM (inactive) | > 100 µM (inactive) | > 100 µM (inactive) | – | > 100 µM (inactive) | – | > 100 µM (inactive) | – | – |
| CNN1C(=O)c2c(C)c(C)c(C#N)c(N)c2C1=O | – | > 100 µM (inactive) | > 100 µM (inactive) | > 100 µM | > 100 µM (inactive) | > 100 µM (inactive) | > 100 µM (inactive) | – | > 100 µM (inactive) | > 100 µM (inactive) | > 100 µM (inactive) | > 100 µM (inactive) | > 100 µM (inactive) | > 100 µM (inactive) | 83.2 µM (inactive) | > 100 µM (inactive) | > 100 µM (inactive) | > 100 µM (inactive) | > 100 µM (inactive) |
| CCC(=O)N1C(=O)C(CC)(CC)C(=O)N1C(=O)CC | – | > 100 µM (inactive) | > 100 µM (inactive) | > 100 µM | > 100 µM (inactive) | – | > 100 µM (inactive) | > 100 µM (inactive) | > 100 µM (inactive) | > 100 µM (inactive) | > 100 µM (inactive) | > 100 µM (inactive) | > 100 µM (inactive) | > 100 µM (inactive) | > 100 µM (inactive) | > 100 µM (inactive) | > 100 µM (inactive) | > 100 µM (inactive) | > 100 µM (inactive) |
| c1ccc2c(c1)Nc1cccc3c1c-2nc1cc2ccccc2cc13 | 2.88 µM (inactive) | 1.53 µM (inactive) | – | – | 1.69 µM (inactive) | 1.8 µM (inactive) | 1.74 µM (inactive) | 1.64 µM (inactive) | 1.69 µM (inactive) | 1.87 µM (inactive) | 2.12 µM (inactive) | 1.8 µM (inactive) | 1.62 µM (inactive) | 1.1 µM (active) | 1.41 µM (inactive) | – | 1.58 µM (inactive) | 2.24 µM (inactive) | 2.2 µM (inactive) |
| Cc1cccc(C)c1NC(=O)/C(CC(=O)CC(c1ccccc1)c1c(O)c2ccccc2oc1=O)=N/O (centres undefined) | – | > 100 µM (inactive) | > 100 µM (inactive) | > 100 µM | – | > 100 µM (inactive) | > 100 µM (inactive) | > 100 µM (inactive) | > 100 µM (inactive) | > 100 µM (inactive) | > 100 µM (inactive) | > 100 µM (inactive) | > 100 µM (inactive) | > 100 µM (inactive) | > 100 µM (inactive) | – | > 100 µM (inactive) | > 100 µM (inactive) | > 100 µM (inactive) |
